Laboratory results from article PMC12040169 (PLOS Biology, 2025).

Experiment: in vitro
Details: human, hela cells, % viability

SMILES	viability at 28.5 h, 10 µM [%]
O=C(O)c1ccc(C2(c3ccc(C(=O)O)cc3)OC(=O)c3ccccc32)cc1 [CBK261150]	98.2
CC1(C)CN=C(N2CCN(c3c4c(c(C#N)c5nc6ccccc6n35)CCC4)CC2)S1 [CBK263113]	103
Cc1nc(CC(=O)N2CCOC(c3ccc(F)cc3)C2)cs1 (stereo not shown) [CBK305759]	106
CCN(c1ccccc1)S(=O)(=O)c1ccc(C(=O)NC(C)c2ccc3c(c2)OCCO3)cc1 (stereo not shown) [CBK296945]	83.5
COCCN1CCC(CNC(=O)Nc2cc(C)ccc2F)C1 (stereo not shown) [CBK304631]	117
O=C1NC[C@]2(CC[C@@H](C(=O)NC3CC3)CC2)Oc2ccc(Cl)cc21 [CBK284889]	94.2
Cn1nnnc1SCCNC(=O)Nc1cccc(N2CCOC2=O)c1 [CBK306593]	84.4
COc1ccccc1CNc1ccc(C(=O)O)cc1 [CBK078187]	106
O=C1CCC2(CCN1)CCN(Cc1cccc(-c3ccco3)c1)CC2 [CBK307264]	115
CCOC(=O)COc1c(Cl)cc(/C=C/c2[nH]c(=O)[nH]c(=O)c2[N+](=O)[O-])cc1Cl [CBK267003]	91.2
O=C(O)c1cccc(Sc2cccc(C(F)(F)F)n2)c1 [CBK093592]	98
O=c1c2c3c(sc2nc(SCc2cc(O)[nH]n2)n1Cc1ccco1)CCC3 [CBK268301]	99.4
O=C(N[C@@H](Cn1cc(F)c(=O)[nH]c1=O)C(=O)O)C1CCCC1 [CBK289660]	109
Cc1ccccc1C(=O)N1C2CCC1CC(O)(Cn1ccnc1C)C2 (stereo not shown) [CBK282740]	90.1
COc1ccc(Oc2nccnc2N2CCN(Cc3ccc(Cl)c(Cl)c3)CC2)cc1OC [CBK083038T]	91.8
COc1cc(Nc2cccc(-c3ccc4ccccc4c3)n2)cc(OC)c1OC [CBK037612]	97.9
COCc1cn([C@H]2CO[C@H]3[C@@H]2OC[C@@H]3NC(=O)c2ccc(OC)cc2)nn1 [CBK289494]	115

SMILES	viability at 28.5 h, 10 µM [%]
COc1ccc(C2=NN(c3ccccc3)C(c3ccc(OC)c(OC)c3C(=O)O)C2)cc1 (stereo not shown) [CBK262679]	89.3
COCCN(Cc1ccncc1)C(=O)c1cnc2ccnn2c1C [CBK306965]	92.3
O=C(NC(=O)c1ccc(F)c(Cl)c1)Nc1nnc(C(F)(F)F)s1 [CBK076830]	88.6
CC1CCN(Cc2ccc(-c3nnn(CC(=O)NCc4ccc([N+](=O)[O-])cc4)n3)cc2)CC1 [CBK144176C]	101
Nn1c(COc2ccccc2)nnc1SCC(=O)c1ccc2c(c1)CCCC2 [CBK268466]	100
CC(=O)c1ccc(OCCn2c(SCC(=O)O)nc3ccccc32)cc1 [CBK287115]	88.8
CCNC(=O)Nc1ccc(-c2ccc3c(c2)OCCCO3)c2ccccc12 [CBK083726]	89.4
COc1ccc(OCCCN2C(=O)C3(CC(=O)N(Cc4ccccc4)C3=O)c3cc(OC)ccc32)cc1 (stereo not shown) [CBK075523]	106
CCc1nn(C)c2[nH]nc(NC(=O)Cc3csc(C)n3)c12 [CBK305538]	91.7
CCOC(=O)C(Cc1ccccc1)NC(=O)c1cn[nH]c1C (stereo not shown) [CBK305499]	99.7
COCC(C)NC(=O)c1nn(-c2nc3ccccc3s2)c2ccccc12 (stereo not shown) [CBK048488]	92.6
COCCc1noc(CC2CCN(c3ncc(Cl)cn3)CC2)n1 [CBK304172]	88.7
O=C(c1cccc(F)c1)N1CCC(O)(c2cccnc2F)CC1 [CBK284357]	92.2
COc1ccc(C[C@@]23CCC(=O)C[C@@H]2N(C)CC3)cc1 [CBK009720]	102
Cc1nc(C)n(CC2CCCN(Cc3cc(=O)n4ccccc4n3)C2)n1 (stereo not shown) [CBK304135]	88.5
c1cncc(CN2CCC[C@@H]2CN2CCCC2)c1 [CBK149101C]	99.3
O=C(NCCCn1ccnc1)c1cc(-c2cccc(Br)c2)nc2ccccc12 [CBK265476]	91.4
